# Test results from US20060058966A1, “Methods and systems for guiding selection of chemotherapeutic agents” (priority 2004, published 2006).
# Legend:
# Assay type in all cases: cell-based, human
# [1] = tested on: tumor of patient suffering from ovarian cancer; assay: ATP-TCA assay of tumor samples of patient one; settings: for Initial Therapeutic Index: tumor response curves ranked by AUC-1, high index = more effective
# Description: Briefly, the ATP-TCA assay is conducted as follows. First, aseptically obtained solid tumor specimens are dispersed using, e.g. surgical scissors and scalpels. Subsequently, tissue fragments of 0.5 to 2 mm in diameter are enzymatically dissociated into a cell suspension of single cells and small aggregates by incubation for 4-18 h in 5-10 ml sterile collagenase-containing enzyme preparation such as tumor dissociation enzyme preparation, TDE. Commercially available from Atlantic Scientific, Fort Lauderdale, Fla., or from DCS Innovative Diagnostic Systeme GmbH, Hamburg, Germany. Alternatively, tissue fragments are dissociated using 1.5 mg/ml collagenase H (Sigma Chemical, St. Lewis, Mo.) or by mechanical desegregation. (see, […] al., 1997, Anticancer Drugs, 8:756-762) After filtration and ficoll-hypaque density centrifugation, e.g. (Lymphoprep®, ICN Flow, […], Germany; Histopaque, Sigma Chemical, St. […] A serum-free Complete Assay medium (CAM) available from DCS Innovative Diagnostik Systeme GmbH, Hamburg, Germany is added and cell suspensions then are adjusted to a final concentration of 1-2×10^5 viable cells per ml. […] Test drug concentrations (TDC) are prepared directly on the plates by serial 1:2-dilutions of the individual stock solutions. […] Appropriate controls, e.g., one with CAM, i.e., no inhibition control, (MO) and the other with Maximum ATP Inhibitor (MI) instead of the cytostatics, can be used in six wells of every culture plate. Subsequently, a sample, e.g. 100 μl of single cell suspension (i.e., 10,000- 20,000 cells) is added to each well. Cultures are incubated at 37° C. and 95% humidity in a 95% air, 5% CO2 atmosphere. After 5-7 days of incubation, another cytological analysis is performed in untreated MO controls. Subsequently, intracellular ATP is extracted and stabilized. Then 50 μl aliquots of each lysate is then transferred to a liminometer, e.g. a LB-953 liminometer (Berthold, Wildbad, Germany). ATP is measured, e.g. by the “firefly” light reaction after automatically pipetting 55 μl of Luciferin-Luciferase-Reagent (Lu-Lu) to each cell extract. Luminescence response expressed as Relative Light Units (RLU=photons/10) is counted for 10 seconds with a 4 second delay. An ATP standard curve is performed for all assays. […] End assays are also sampled for pathology, proof that the final wells after treatment contain tumor not benign cells. The following illustrates assignment of a Preliminary Rank or Order to a drug(s) or agent(s) based on the results of ATP-TCA assays of patient tumors presented in representative FIGS. 4A-C. All ATP-TCA assays were conducted as described previously herein in detail (see also, e.g., Andreotti et al., 1995, Cancer Res. 55:5276-82; Kurbacher et al., 1996, Breast Cancer Res. Treat., 41:161-70). FIG. 4A illustrates assay results were obtained with samples of a tumor of patient […] suffering from ovarian cancer. The results of an ATP-TCA assay are graphically presented (FIG. 4A) as a plot of (TDC) Test Drug Concentration (%) versus Tumor Growth Inhibition (%) (i.e., ATP test activity/ATP control×100%). (Carboplatin is abbreviated in FIGS. 4A-B as CBDCA.) The tumor response curves presented in FIG. 4A are ranked as described herein as if they were reference data. The numerical measure used is the AUC-I test. […] Alternative, the range from the least to the greatest response can be divided into 10 segments and the curves are assigned to their corresponding segments.
# [2] = tested on: tumor of patient also suffering from ovarian cancer; assay: ATP-TCA assay of tumor samples of patient two; settings: for Initial Therapeutic Index: indexed as for patient one
# Description: Briefly, the ATP-TCA assay is conducted as follows. First, aseptically obtained solid tumor specimens are dispersed using, e.g. surgical scissors and scalpels. Subsequently, tissue fragments of 0.5 to 2 mm in diameter are enzymatically dissociated into a cell suspension of single cells and small aggregates by incubation for 4-18 h in 5-10 ml sterile collagenase-containing enzyme preparation such as tumor dissociation enzyme preparation, TDE. Commercially available from Atlantic Scientific, Fort Lauderdale, Fla., or from DCS Innovative Diagnostic Systeme GmbH, Hamburg, Germany. Alternatively, tissue fragments are dissociated using 1.5 mg/ml collagenase H (Sigma Chemical, St. Lewis, Mo.) or by mechanical desegregation. (see, e.g., Myatt et al., 1997, Anticancer Drugs, 8:756-762) After filtration and ficoll-hypaque density centrifugation, e.g. (Lymphoprep®, ICN Flow, Meckenheim, Germany; Histopaque, Sigma Chemical, St. Louis, Mo.), the quality and viability of resultant single cell suspensions are determined e.g., by trypan blue dye exclusion (0.2% Merck, Darmstadt, Germany) and by subsequent cytological examination. A serum-free Complete Assay medium (CAM) available from DCS Innovative Diagnostik Systeme GmbH, Hamburg, Germany is added and cell suspensions then are adjusted to a final concentration of 1-2×10^5 viable cells per ml.
# Drug assays can be performed in 96-well polypropylene microtiter plates (round-bottom). Test drug concentrations (TDC) are prepared directly on the plates by serial 1:2-dilutions of the individual stock solutions. Each drug is tested by continuous exposure in triplicate at a number, e.g., six different concentrations ranging from 6.25% to 200% of test drug concentration.
# Subsequently, a sample, e.g. 100 μl of single cell suspension (i.e., 10,000- 20,000 cells) is added to each well. Cultures are incubated at 37° C. and 95% humidity in a 95% air, 5% CO2 atmosphere.
# After 5-7 days of incubation, another cytological analysis is performed in untreated MO controls. Subsequently, intracellular ATP is extracted and stabilized. Then 50 μl aliquots of each lysate is then transferred to a liminometer, e.g. a LB-953 liminometer (Berthold, Wildbad, Germany). ATP is measured, e.g. by the “firefly” light reaction after automatically pipetting 55 μl of Luciferin-Luciferase-Reagent (Lu-Lu) to each cell extract. Luminescence response expressed as Relative Light Units (RLU=photons/10) is counted for 10 seconds with a 4 second delay. An ATP standard curve is performed for all assays. MO should be greater than 100 pg/ml ATP. Assays showing mean RLU values of less than 20,000 (MO), a MI/MO-ratio>0.01, or evidence of microbiological contamination are regarded as non-evaluable. End assays are also sampled for pathology, proof that the final wells after treatment contain tumor not benign cells.
# All ATP-TCA assays were conducted as described previously herein in detail (see also, e.g., Andreotti et al., 1995, Cancer Res. 55:5276-82; Kurbacher et al., 1996, Breast Cancer Res. Treat., 41:161-70).
# [3] = tested on: tumor of a pancreatic cancer patient; assay: ATP-TCA assay of tumor samples of a pancreatic cancer patient; settings: pancreatic cancer sample
# Description: Briefly, the ATP-TCA assay is conducted as follows. First, aseptically obtained solid tumor specimens are dispersed using, e.g. surgical scissors and scalpels. Subsequently, tissue fragments of 0.5 to 2 mm in diameter are enzymatically dissociated into a cell suspension of single cells and small aggregates by incubation for 4-18 h in 5-10 ml sterile collagenase-containing enzyme preparation such as tumor dissociation enzyme preparation, TDE. Commercially available from Atlantic Scientific, Fort Lauderdale, Fla., or from DCS Innovative Diagnostic Systeme GmbH, Hamburg, Germany. Alternatively, tissue fragments are dissociated using 1.5 mg/ml collagenase H (Sigma Chemical, St. Lewis, Mo.) or by mechanical desegregation. […] A serum-free Complete Assay medium (CAM) available from DCS Innovative Diagnostik Systeme GmbH, Hamburg, Germany is added and cell suspensions then are adjusted to a final concentration of 1-2×10^5 viable cells per ml. […] Test drug concentrations (TDC) are prepared directly on the plates by serial 1:2-dilutions of the individual stock solutions. […] Subsequently, a sample, e.g. 100 μl of single cell suspension (i.e., 10,000- 20,000 cells) is added to each well. Cultures are incubated at 37° C. and 95% humidity in a 95% air, 5% CO2 atmosphere. After 5-7 days of incubation, another cytological analysis is performed in untreated MO controls. Subsequently, intracellular ATP is extracted and stabilized. Then 50 μl aliquots of each lysate is then transferred to a liminometer, e.g. a LB-953 liminometer (Berthold, Wildbad, Germany). ATP is measured, e.g. by the “firefly” light reaction after automatically pipetting 55 μl of Luciferin-Luciferase-Reagent (Lu-Lu) to each cell extract. Luminescence response expressed as Relative Light Units (RLU=photons/10) is counted for 10 seconds with a 4 second delay. An ATP standard curve is performed for all assays. MO should be greater than 100 pg/ml ATP. […] End assays are also sampled for pathology, proof that the final wells after treatment contain tumor not benign cells. […] All ATP-TCA assays were conducted as described previously herein in detail (see also, e.g., Andreotti et al., 1995, Cancer Res. 55:5276-82; Kurbacher et al., 1996, Breast Cancer Res. Treat., 41:161-70).
SMILES,activity against this patient's tumor [1],Initial Therapeutic Index [1],activity against this patient's tumor [2],Initial Therapeutic Index [2],Initial Therapeutic Index [3],activity against this tumor [3]
N.N.O=C([O-])C1(C(=O)[O-])CCC1.[Pt+2] [Carboplatin],single best drug,10,at best moderately active,5,,
"N.N.[Cl][Pt][Cl] [DDP, cisplatin]",,,,,2,not significantly active
"Nc1ccn([C@@H]2O[C@H](CO)[C@@H](O)C2(F)F)c(=O)n1 [Gemcitabine, gemcitabine]",not significantly active,3,at best moderately active,3,3,not significantly active
"CC(=O)O[C@H]1C(=O)[C@@]2(C)[C@H]([C@H](OC(=O)c3ccccc3)[C@]3(O)C[C@H](OC(=O)[C@H](O)[C@@H](NC(=O)c4ccccc4)c4ccccc4)C(C)=C1C3(C)C)[C@]1(OC(C)=O)CO[C@@H]1C[C@@H]2O [Taxol, paclitaxel]",not significantly active,2,single best drug,8,,
